Measurements taken from ChEMBL document CHEMBL5678818, “Discovery of potent SOS1 inhibitors that block RAS activation via disruption of the RAS-SOS1 interaction” (Proc Natl Acad Sci U S A, 2019).

Tests used:
[1] = biological target: Cyclin-dependent kinase 18 (Homo sapiens) (UniProt Q07002); experiment: Inhibition of PCTK3 (unknown origin) assessed as residual activity at 1000 nM by KINOMEscan analysis relative to control
[2] = biological target: T1, Mitogen-activated protein kinase kinase kinase 15 (Homo sapiens) (UniProt Q6ZN16); experiment: Inhibition of MAP3K15 (unknown origin) assessed as residual activity at 1000 nM by KINOMEscan analysis relative to control
T1 sequence (whole entry): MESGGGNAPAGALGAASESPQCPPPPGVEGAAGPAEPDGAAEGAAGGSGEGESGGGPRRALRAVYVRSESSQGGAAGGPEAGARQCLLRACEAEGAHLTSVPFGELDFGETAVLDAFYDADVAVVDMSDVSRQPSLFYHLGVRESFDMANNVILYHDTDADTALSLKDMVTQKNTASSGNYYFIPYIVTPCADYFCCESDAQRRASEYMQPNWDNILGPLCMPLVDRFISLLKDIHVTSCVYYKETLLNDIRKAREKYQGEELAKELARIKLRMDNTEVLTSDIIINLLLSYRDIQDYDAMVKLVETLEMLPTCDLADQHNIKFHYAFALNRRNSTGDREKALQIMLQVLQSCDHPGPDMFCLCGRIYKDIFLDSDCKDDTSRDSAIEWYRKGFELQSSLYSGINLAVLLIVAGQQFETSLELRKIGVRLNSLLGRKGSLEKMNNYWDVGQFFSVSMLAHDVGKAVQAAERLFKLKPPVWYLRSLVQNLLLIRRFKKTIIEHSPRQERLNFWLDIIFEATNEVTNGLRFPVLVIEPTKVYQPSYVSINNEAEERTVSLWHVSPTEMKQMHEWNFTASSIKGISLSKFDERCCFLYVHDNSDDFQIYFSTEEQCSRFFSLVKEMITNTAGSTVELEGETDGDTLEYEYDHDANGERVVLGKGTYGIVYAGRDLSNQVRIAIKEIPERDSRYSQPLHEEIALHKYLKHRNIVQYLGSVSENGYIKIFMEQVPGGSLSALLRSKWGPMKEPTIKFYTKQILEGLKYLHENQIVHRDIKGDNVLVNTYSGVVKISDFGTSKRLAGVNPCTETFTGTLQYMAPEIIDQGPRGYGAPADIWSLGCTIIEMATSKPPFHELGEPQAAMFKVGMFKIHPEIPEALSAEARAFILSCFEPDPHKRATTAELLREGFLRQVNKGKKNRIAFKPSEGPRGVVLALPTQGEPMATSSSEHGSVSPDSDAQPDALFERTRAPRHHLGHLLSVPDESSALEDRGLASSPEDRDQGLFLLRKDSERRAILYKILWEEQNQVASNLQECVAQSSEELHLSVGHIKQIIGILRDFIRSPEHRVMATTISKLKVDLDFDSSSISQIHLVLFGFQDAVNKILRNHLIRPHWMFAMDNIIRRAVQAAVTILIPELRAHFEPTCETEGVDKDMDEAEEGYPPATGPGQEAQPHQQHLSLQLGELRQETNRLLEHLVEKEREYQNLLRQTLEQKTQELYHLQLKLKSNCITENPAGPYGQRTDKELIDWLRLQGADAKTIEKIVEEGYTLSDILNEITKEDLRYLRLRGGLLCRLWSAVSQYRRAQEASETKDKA

[3] = biological target: T2, Tyrosine-protein kinase JAK3 (Homo sapiens) (UniProt P52333); experiment: Inhibition of JAK3 JH1 catalytic domain (unknown origin) assessed as residual activity at 1000 nM by KINOMEscan analysis relative to control
T2 sequence (whole entry): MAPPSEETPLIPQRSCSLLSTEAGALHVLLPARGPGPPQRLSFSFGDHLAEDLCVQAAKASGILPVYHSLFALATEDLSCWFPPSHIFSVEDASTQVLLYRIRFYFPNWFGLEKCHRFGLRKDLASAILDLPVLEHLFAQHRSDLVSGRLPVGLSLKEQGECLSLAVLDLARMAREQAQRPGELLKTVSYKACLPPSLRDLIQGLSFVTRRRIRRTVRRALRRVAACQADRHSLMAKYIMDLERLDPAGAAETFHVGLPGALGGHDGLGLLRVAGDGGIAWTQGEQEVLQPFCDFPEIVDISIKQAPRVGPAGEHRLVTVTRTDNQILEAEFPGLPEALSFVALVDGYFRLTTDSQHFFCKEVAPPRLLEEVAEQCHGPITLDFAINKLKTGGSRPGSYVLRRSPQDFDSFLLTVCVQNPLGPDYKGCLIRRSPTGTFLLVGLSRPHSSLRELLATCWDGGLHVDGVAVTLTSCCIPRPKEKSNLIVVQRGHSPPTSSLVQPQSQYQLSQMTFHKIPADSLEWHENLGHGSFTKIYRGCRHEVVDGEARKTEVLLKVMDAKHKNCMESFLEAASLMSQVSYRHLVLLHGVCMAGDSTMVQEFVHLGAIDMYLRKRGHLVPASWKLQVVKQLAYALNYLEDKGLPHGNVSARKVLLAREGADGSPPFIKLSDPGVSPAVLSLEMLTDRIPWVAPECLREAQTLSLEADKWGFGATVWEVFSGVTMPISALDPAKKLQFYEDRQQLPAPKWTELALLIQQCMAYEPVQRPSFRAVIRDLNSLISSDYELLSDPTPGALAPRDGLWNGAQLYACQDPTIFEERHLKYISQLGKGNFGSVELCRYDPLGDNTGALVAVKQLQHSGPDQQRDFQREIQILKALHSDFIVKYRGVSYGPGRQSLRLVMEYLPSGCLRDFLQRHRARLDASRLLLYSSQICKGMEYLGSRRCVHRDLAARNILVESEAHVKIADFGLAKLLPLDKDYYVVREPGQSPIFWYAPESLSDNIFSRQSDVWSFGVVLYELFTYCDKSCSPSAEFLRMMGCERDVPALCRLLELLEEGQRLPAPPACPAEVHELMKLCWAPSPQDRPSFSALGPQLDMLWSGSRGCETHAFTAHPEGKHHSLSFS

[4] = biological target: Angiopoietin-1 receptor (Homo sapiens) (UniProt Q02763); experiment: Inhibition of TIE2 (unknown origin) assessed as residual activity at 1000 nM by KINOMEscan analysis relative to control
[5] = biological target: Serine/threonine-protein kinase MRCK alpha (Homo sapiens) (UniProt Q5VT25); experiment: Inhibition of MRCKA (unknown origin) assessed as residual activity at 1000 nM by KINOMEscan analysis relative to control
Chain of Serine/threonine-protein kinase MRCK alpha (Homo sapiens) (Q5VT25 whole entry): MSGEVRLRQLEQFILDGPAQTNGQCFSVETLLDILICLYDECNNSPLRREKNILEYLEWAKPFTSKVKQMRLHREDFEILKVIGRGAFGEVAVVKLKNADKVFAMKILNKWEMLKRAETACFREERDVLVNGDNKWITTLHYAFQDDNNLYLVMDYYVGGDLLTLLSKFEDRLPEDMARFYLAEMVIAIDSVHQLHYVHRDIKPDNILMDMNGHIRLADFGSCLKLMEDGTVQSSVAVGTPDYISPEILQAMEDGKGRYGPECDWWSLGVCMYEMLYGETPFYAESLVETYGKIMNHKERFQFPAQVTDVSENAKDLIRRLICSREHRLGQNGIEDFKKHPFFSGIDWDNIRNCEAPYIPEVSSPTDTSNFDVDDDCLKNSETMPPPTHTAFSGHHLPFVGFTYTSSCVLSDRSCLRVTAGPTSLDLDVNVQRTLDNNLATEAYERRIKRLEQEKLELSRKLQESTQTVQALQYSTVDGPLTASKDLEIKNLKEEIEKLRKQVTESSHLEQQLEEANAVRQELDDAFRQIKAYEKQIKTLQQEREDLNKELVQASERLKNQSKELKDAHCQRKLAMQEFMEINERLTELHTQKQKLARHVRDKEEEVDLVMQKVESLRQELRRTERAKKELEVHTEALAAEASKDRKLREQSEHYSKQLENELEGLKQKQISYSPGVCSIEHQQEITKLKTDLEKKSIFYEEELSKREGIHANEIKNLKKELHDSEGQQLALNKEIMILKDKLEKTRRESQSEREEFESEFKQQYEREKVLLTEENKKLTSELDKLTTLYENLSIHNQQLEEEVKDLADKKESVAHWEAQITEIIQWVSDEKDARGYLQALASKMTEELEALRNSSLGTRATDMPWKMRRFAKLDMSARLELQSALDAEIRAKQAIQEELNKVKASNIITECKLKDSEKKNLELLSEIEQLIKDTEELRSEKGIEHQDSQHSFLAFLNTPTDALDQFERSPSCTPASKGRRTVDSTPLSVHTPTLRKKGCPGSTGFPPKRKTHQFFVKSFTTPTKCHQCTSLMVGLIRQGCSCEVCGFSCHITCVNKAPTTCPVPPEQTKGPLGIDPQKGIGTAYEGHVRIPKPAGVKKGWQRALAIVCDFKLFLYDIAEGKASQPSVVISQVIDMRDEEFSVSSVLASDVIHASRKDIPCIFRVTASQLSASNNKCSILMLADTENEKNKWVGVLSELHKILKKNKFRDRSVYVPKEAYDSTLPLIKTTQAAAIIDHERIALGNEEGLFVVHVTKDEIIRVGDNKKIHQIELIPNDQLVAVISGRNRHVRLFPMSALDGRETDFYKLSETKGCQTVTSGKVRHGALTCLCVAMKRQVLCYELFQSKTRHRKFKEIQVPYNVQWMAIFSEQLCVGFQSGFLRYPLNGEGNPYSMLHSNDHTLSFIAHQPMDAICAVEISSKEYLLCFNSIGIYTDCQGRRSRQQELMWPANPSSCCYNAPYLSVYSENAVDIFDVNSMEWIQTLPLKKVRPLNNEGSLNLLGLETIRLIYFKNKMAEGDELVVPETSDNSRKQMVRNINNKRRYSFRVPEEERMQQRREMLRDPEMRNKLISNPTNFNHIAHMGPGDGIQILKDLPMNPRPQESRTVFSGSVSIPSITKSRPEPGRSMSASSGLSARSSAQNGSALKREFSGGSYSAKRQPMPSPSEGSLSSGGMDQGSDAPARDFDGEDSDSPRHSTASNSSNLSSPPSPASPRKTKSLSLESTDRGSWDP

Chain of Cyclin-dependent kinase 18 (Homo sapiens) (Q07002 whole entry): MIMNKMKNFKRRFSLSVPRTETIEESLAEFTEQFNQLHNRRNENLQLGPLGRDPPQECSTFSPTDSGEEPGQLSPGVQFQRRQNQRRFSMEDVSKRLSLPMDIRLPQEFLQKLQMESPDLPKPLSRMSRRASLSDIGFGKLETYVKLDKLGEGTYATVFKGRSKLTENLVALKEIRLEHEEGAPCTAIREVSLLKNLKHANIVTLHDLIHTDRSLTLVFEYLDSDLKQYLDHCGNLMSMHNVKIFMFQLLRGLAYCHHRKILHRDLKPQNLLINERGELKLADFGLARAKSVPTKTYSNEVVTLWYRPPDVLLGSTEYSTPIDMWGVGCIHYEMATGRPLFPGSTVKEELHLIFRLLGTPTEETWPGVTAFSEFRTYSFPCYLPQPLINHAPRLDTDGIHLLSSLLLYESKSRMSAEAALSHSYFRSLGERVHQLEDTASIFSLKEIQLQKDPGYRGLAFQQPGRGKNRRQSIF
Chain of Angiopoietin-1 receptor (Homo sapiens) (Q02763 whole entry): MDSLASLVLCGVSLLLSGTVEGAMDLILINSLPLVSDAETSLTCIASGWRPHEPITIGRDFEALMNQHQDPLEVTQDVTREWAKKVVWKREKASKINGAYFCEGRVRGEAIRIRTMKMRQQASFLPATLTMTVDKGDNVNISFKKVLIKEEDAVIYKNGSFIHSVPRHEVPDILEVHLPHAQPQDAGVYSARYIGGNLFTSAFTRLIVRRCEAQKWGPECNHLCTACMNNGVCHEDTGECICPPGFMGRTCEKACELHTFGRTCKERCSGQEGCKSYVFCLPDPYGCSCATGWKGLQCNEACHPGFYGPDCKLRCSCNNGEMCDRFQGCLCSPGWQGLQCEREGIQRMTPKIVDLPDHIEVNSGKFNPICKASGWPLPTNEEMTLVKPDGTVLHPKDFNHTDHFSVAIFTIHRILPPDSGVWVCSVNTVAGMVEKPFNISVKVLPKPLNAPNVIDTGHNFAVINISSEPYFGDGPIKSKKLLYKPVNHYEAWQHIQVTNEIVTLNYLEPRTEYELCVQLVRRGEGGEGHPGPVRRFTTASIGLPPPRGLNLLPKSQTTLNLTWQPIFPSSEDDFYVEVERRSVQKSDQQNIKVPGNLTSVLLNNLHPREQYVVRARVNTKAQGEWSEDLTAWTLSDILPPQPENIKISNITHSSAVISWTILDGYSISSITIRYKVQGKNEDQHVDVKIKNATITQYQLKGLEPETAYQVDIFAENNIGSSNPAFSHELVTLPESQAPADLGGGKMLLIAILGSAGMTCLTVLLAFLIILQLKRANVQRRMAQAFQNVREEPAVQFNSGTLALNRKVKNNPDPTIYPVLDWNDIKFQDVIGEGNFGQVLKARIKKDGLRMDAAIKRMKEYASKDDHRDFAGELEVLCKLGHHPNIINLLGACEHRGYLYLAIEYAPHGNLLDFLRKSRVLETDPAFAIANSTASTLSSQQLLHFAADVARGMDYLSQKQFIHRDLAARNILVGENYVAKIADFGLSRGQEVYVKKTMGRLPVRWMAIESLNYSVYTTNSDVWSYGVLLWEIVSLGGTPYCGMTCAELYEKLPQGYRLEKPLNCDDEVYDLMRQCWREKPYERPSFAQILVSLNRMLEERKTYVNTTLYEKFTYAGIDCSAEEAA

With COc1cc2ncnc(N[C@H](C)c3cccc4ccccc34)c2cc1OC the Activity [1] was 100%, the Activity [2] was 80% and the Activity [3] was 81%. The Activity [4] was 100% and the Activity [5] was 100%.

In the case of COc1cc2nc(C)nc(N[C@H](C)c3cccc(-c4cn[nH]c4)c3)c2cc1OC, the Activity [1] is reported as 99%, the Activity [2] is reported as 63% and the Activity [3] is reported as 100%. The Activity [4] was 81% and the Activity [5] was 94%.
